From PubChem BioAssay (NCI)
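In this assay, cells in 96-well plates receive the compound at five concentrations for 48 hours. Endpoints are linearly interpolated between the surrounding concentrations. The concentration for 50% growth inhibition is given as GI50. The concentration for full growth arrest is given as TGI.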

What was measured:
Test in all cases: NCI-60 cell line screen, 48 h
[1] = system: NCI-H460 lung
[2] = system: HOP-92 NSCLC
[3] = system: U251 CNS
[4] = system: TK-10 renal
[5] = system: SF-268 CNS
[6] = system: OVCAR-3 ovarian
[7] = system: HCT-116 colon
[8] = system: CCRF-CEM leukemia
[9] = system: RXF 393 renal
[10] = system: LOX IMVI melanoma
[11] = system: UACC-257 melanoma
[12] = system: OVCAR-4 ovarian
[13] = system: SNB-19 CNS
[14] = system: COLO 205 colon
[15] = system: HS 578T breast
[16] = system: A498 renal
[17] = system: HT29 colon
[18] = system: UO-31 renal
[19] = system: 786-0 renal
[20] = system: EKVX NSCLC
[21] = system: HCT-15 colon
[22] = system: SF-539 CNS
[23] = system: SW-620 colon
[24] = system: OVCAR-5 ovarian
[25] = system: MCF7 breast
[26] = system: SK-MEL-28 melanoma
[27] = system: MDA-MB-435
[28] = system: SF-295 CNS
[29] = system: T-47D breast
[30] = system: K-562 leukemia
[31] = system: NCI/ADR-RES ovarian
[32] = system: M14 melanoma
[33] = system: ACHN renal
[34] = system: RPMI-8226 leukemia
[35] = system: SK-MEL-2 melanoma
[36] = system: CAKI-1 renal
[37] = system: NCI-H226 lung
[38] = system: SK-OV-3 ovarian
[39] = system: MALME-3M melanoma
[40] = system: NCI-H23 lung
[41] = system: A549 NSCLC
[42] = system: NCI-H522 lung
[43] = system: OVCAR-8 ovarian
[44] = system: SR leukemia
[45] = system: PC-3 prostate
[46] = system: UACC-62 melanoma
[47] = system: SK-MEL-5 melanoma
[48] = system: MDA-MB-231 breast
[49] = system: MOLT-4 leukemia
[50] = system: HOP-62 NSCLC
[51] = system: BT-549 breast
[52] = system: IGROV1 ovarian
[53] = system: KM12 colon
[54] = system: DU-145 prostate
[55] = system: HL-60(TB) leukemia
[56] = system: HCC-2998 colon
[57] = system: SN12C renal

For `Nc1nc(N)c2cc(CNc3ccc(C(=O)NC(CC(=O)O)C(=O)O)cc3)ccc2n1` (configuration not stated), the GI50 [1] was 49.2 nM, the TGI [1] was > 100 µM and the GI50 [2] was > 41 µM. The TGI [2] was > 100 µM, the GI50 [3] was 200 nM and the TGI [3] was > 100 µM. The TGI [4] was > 100 µM, the GI50 [5] was 174 nM and the TGI [5] was > 100 µM. The GI50 [6] was 3.83 µM, the TGI [6] was > 100 µM and the GI50 [7] was 26 nM. The TGI [7] was > 100 µM, the GI50 [8] was 83.9 nM and the TGI [8] was > 100 µM. For the same compound, the GI50 [9] was > 100 µM, the TGI [9] was > 100 µM and the GI50 [10] was 43.4 nM. The TGI [10] was > 100 µM, the GI50 [11] was > 100 µM and the TGI [11] was > 100 µM. The GI50 [12] was > 100 µM, the TGI [12] was > 100 µM and the GI50 [13] was 2160 nM. For the same compound, the TGI [13] was > 100 µM, the GI50 [14] was 3.4 µM and the TGI [14] was > 100 µM. For the same compound, the GI50 [15] was > 55.4 µM, the TGI [15] was > 100 µM and the TGI [16] was > 100 µM. For the same compound, the GI50 [17] was 59.4 nM, the TGI [17] was > 100 µM and the GI50 [18] was 358 nM. For the same compound, the TGI [18] was > 100 µM, the GI50 [19] was 103 nM and the TGI [19] was > 100 µM. The TGI [20] was > 100 µM, the GI50 [21] was 49 nM and the TGI [21] was > 100 µM. For the same compound, the GI50 [22] was 162 nM, the TGI [22] was > 100 µM and the GI50 [23] was 43.2 nM. The TGI [23] was > 100 µM, the TGI [24] was > 100 µM and the GI50 [25] was 62.1 nM. For the same compound, the TGI [25] was > 100 µM, the TGI [26] was > 100 µM and the GI50 [27] was 58.9 nM. The TGI [27] was > 100 µM, the GI50 [28] was 61.1 nM and the GI50 [29] was > 100 µM. For the same compound, the TGI [29] was > 100 µM, the GI50 [30] was 35.9 nM and the TGI [30] was > 100 µM. The GI50 [31] was 126 nM, the TGI [31] was > 100 µM and the GI50 [32] was 119 nM. The TGI [32] was > 87.7 µM, the GI50 [33] was 180 nM and the TGI [33] was > 100 µM. The GI50 [34] was 694 nM, the TGI [34] was > 100 µM and the TGI [35] was > 100 µM. For the same compound, the GI50 [36] was 108 nM, the TGI [36] was > 100 µM and the TGI [37] was > 100 µM. For the same compound, the GI50 [38] was 1300 nM, the TGI [38] was > 100 µM and the TGI [39] was > 100 µM. For the same compound, the GI50 [40] was 311 nM, the TGI [40] was > 100 µM and the GI50 [41] was 57.8 nM. For the same compound, the TGI [41] was > 100 µM, the TGI [42] was > 100 µM and the GI50 [43] was 104 nM. For the same compound, the TGI [43] was > 100 µM, the TGI [44] was > 100 µM and the TGI [45] was > 100 µM. For the same compound, the GI50 [46] was 218 nM, the TGI [46] was > 100 µM and the GI50 [47] was 340 nM. For the same compound, the TGI [47] was > 100 µM, the GI50 [48] was > 83.7 µM and the TGI [48] was > 100 µM. The GI50 [49] was 825 nM, the TGI [49] was > 100 µM and the GI50 [50] was 196 nM. For the same compound, the TGI [50] was > 100 µM, the GI50 [51] was 429 nM and the TGI [51] was > 100 µM. For the same compound, the GI50 [52] was 187 nM, the TGI [52] was > 100 µM and the GI50 [53] was 81.7 nM. The TGI [53] was > 100 µM, the GI50 [54] was 170 nM and the TGI [54] was > 100 µM. For the same compound, the GI50 [55] was 32.5 nM, the TGI [55] was > 100 µM and the GI50 [56] was 281 nM. The TGI [56] was > 82 µM, the GI50 [57] was 211 nM and the TGI [57] was > 100 µM.
